The results in this text go back to US20210284639A1, “TYROSINE AMIDE DERIVATIVES AS RHO- KINASE INHIBITORS” (CHIESI FARMACEUTICI S.p.A., priority 2018, published 2021).

The target in one assay is ROCK 1 (Rho kinase 1) (Homo sapiens, UniProt Q13464). In words: In vitro inhibitory activity assay (ADP-Glo), Rho kinase 1. The class given is biochemical. The note with it: Ki by Cheng-Prusoff from IC50; 10 μM ATP, 25° C. The procedure: (§1) In Vitro Inhibitory Activity Assay Description
(§2) The effectiveness of compounds of the present invention to inhibit Rho kinase activity can be determined in a 10 μl assay containing 40 mM Tris pH7.5, 20 mM MgCl2 0.1 mg/ml BSA, 50 μM DTT and 2.5 μM peptide substrate (Myelin Basic Protein) using an ADP-Glo kit (Promega). Compounds were dissolved in DMSO such that the final concentration of DMSO was 1% in the assay. All reactions/incubations are performed at 25° C. Compound (2 μl) and either Rho kinase 1 or 2 (4 μl) were mixed and incubated for 30 mins. Reactions were initiated by addition of ATP (4 μl) such that the final concentration of ATP in the assay was 10 μM. After a 1 hour incubation 10 μl of ADP-Glo Reagent was added and after a further 45 minute incubation 20 μl of Kinase Detection Buffer was added and the mixture incubated for a further 30 minutes. The luminescent signal was measured on a luminometer. […] Compounds were tested in dose-response format and the inhibition of kinase activity was calculated at each concentration of compound. To determine the IC50 (concentration of compound required to inhibit 50% of the enzyme activity) data were fit to a plot of % inhibition vs Log10 compound concentration using a sigmoidal fit with a variable slope and fixing the maximum to 100% and the minimum to 0%. To determine the Ki values the Cheng-Prusoff equation was utilized (Ki=IC50/(1+[S]/Km).
A general note: ADP-Glo first removes unused ATP, then detects ADP through luciferase.

For a further assay, the target named is ROCK 2 (Rho kinase 2) (Homo sapiens, UniProt O75116). Nature of the assay: In vitro inhibitory activity assay (ADP-Glo), Rho kinase 2. The following applies: Ki by Cheng-Prusoff from IC50; 10 μM ATP, 25° C. In kind it is biochemical. The method, then: as §1, §2
ROCK 2 (Rho kinase 2), sequence (O75116 whole entry): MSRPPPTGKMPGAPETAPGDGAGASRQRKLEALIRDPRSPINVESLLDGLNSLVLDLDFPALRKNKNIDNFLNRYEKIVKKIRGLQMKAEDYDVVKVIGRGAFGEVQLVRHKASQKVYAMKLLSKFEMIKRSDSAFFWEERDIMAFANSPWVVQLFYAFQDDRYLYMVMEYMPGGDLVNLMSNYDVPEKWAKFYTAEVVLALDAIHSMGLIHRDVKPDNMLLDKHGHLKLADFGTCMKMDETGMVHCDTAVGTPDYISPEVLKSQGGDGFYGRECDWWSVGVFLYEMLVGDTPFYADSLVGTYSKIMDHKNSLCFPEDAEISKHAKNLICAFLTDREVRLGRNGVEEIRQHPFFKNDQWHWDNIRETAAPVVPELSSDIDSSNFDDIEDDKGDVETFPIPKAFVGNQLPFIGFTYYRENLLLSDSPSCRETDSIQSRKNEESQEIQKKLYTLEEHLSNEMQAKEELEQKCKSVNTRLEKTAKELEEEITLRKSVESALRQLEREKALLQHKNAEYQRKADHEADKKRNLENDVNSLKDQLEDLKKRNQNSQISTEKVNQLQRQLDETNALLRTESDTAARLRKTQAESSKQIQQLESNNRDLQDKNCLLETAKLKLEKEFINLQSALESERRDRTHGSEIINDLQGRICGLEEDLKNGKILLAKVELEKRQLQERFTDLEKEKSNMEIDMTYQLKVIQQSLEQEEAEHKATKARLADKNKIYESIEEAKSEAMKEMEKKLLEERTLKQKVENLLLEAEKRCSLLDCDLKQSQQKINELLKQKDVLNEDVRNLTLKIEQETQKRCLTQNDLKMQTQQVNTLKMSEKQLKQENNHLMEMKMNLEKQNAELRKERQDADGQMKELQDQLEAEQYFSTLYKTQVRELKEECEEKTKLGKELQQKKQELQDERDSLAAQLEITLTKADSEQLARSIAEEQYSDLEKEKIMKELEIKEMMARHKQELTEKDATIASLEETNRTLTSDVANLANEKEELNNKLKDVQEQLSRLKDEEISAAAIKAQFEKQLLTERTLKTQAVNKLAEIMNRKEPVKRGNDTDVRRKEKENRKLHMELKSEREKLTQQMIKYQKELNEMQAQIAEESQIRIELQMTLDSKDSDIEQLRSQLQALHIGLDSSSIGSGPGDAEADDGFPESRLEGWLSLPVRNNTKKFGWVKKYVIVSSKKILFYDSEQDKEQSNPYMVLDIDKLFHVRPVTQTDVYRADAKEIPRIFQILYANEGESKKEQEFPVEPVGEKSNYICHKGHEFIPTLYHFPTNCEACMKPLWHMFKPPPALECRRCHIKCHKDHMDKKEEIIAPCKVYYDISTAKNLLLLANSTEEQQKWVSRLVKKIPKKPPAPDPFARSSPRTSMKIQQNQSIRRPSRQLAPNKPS

ROCK 1 (Rho kinase 1), sequence (Q13464 whole entry): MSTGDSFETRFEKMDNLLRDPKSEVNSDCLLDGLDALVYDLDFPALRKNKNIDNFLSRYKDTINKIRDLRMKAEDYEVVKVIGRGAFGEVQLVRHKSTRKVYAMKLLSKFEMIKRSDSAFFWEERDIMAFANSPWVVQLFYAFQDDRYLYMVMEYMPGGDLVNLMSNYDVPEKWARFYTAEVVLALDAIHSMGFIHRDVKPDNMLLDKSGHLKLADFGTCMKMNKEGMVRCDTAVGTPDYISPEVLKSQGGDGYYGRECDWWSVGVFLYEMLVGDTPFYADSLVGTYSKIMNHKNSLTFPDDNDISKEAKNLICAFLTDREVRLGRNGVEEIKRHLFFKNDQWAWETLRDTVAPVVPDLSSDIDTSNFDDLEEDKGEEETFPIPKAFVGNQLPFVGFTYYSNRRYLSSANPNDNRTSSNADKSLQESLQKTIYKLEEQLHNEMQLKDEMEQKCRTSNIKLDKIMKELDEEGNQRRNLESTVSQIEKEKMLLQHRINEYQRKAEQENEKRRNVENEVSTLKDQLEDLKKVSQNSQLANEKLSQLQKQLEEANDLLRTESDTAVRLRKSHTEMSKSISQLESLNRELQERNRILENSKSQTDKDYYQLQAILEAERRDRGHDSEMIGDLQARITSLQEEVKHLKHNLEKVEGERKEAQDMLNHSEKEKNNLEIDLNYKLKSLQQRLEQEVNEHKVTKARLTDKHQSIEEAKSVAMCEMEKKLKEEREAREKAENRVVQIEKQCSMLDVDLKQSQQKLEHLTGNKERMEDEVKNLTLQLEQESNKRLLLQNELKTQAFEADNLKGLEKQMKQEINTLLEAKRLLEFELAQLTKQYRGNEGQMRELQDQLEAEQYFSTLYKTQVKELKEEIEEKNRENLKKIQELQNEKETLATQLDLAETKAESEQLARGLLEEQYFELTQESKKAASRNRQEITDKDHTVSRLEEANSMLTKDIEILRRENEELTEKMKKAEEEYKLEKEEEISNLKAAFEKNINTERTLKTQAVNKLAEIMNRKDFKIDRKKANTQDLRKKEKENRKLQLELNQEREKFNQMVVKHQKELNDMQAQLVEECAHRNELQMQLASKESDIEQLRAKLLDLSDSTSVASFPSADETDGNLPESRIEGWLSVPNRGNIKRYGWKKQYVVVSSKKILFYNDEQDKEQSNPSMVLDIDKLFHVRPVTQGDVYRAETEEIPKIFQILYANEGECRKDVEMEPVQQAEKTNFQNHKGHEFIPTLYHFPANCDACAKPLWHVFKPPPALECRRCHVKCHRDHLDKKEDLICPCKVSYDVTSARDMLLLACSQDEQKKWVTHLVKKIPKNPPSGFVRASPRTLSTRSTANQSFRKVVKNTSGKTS

By Ki is commonly meant a measure of affinity in units of concentration, obtained from inhibition or displacement. A higher Ki goes with a looser hold on the target. Regarding `Cc1c[nH]c2nccc(Oc3ccc(C[C@H](N)C(=O)N4CCc5cnccc5C4)cc3F)c12` [Example 25, (S)-2-Amino-1-(3,4-dihydro-2,6-naphthyridin-2(1H)-yl)-3-(3-fluoro-4-((3-methyl-1H-pyrrolo[2,3-b]pyridin-4-yl)oxy)phenyl)propan-1-one], the Ki at ROCK 1 (Rho kinase 1) and at ROCK 2 (Rho kinase 2) was under 3 nM each time.

For `Cc1c[nH]c2nccc(Oc3ccc(C[C@H](N)C(=O)N4CCc5ncccc5C4)cc3F)c12` [Example 26, (S)-2-amino-1-(7,8-dihydro-1,6-naphthyridin-6(5H)-yl)-3-(3-fluoro-4-((3-methyl-1H-pyrrolo[2,3-b]pyridin-4-yl)oxy)phenyl)propan-1-one], the Ki at ROCK 1 (Rho kinase 1) and at ROCK 2 (Rho kinase 2) was under 3 nM each time.

Consider `Cc1c[nH]c2nccc(Oc3ccc(C[C@H](N)C(=O)NC4(C(N)=O)CCC4)cc3F)c12` [Example 27, (S)-1-(2-Amino-3-(3-fluoro-4-((3-methyl-1H-pyrrolo[2,3-b]pyridin-4-yl)oxy)phenyl)propanamido)cyclobutane-1-carboxamide], for which the Ki at ROCK 1 (Rho kinase 1) and at ROCK 2 (Rho kinase 2) was under 3 nM in each case.

For the compound `CNC(=O)C1(NC(=O)[C@@H](N)Cc2ccc(Oc3ccnc4[nH]cc(C)c34)c(F)c2)CCCC1` [Example 28, (S)-1-(2-amino-3-(3-fluoro-4-((3-methyl-1H-pyrrolo[2,3-b]pyridin-4-yl)oxy)phenyl)propanamido)-N-methylcyclopentane-1-carboxamide], the Ki at ROCK 1 (Rho kinase 1) and at ROCK 2 (Rho kinase 2) was under 3 nM each time.

Take `CNC(=O)C1(NC(=O)[C@@H](N)Cc2ccc(Oc3ccnc4[nH]cc(C)c34)c(F)c2)CCCCC1` [Example 29, (S)-1-(2-amino-3-(3-fluoro-4-((3-methyl-1H-pyrrolo[2,3-b]pyridin-4-yl)oxy)phenyl)propanamido)-N-methylcyclohexane-1-carboxamide]: the Ki at ROCK 1 (Rho kinase 1) and at ROCK 2 (Rho kinase 2) was under 3 nM in each case.

For the compound `Cc1c[nH]c2nccc(Oc3ccc(C[C@H](N)C(=O)NC4(CO)CCC4)cc3F)c12` [Example 30, (S)-2-amino-3-(3-fluoro-4-((3-methyl-1H-pyrrolo[2,3-b]pyridin-4-yl)oxy)phenyl)-N-(1-(hydroxymethyl)cyclobutyl)propanamide], the Ki on ROCK 1 (Rho kinase 1) and on ROCK 2 (Rho kinase 2) was under 3 nM in each case.

As to `Cc1cccc(S(=O)(=O)C2CCN(C(=O)[C@@H](N)Cc3ccc(Oc4ccnc5[nH]cc(C)c45)c(F)c3)CC2)c1` [Example 31, (S)-2-Amino-3-(3-fluoro-4-((3-methyl-1H-pyrrolo[2,3-b]pyridin-4-yl)oxy)phenyl)-1-(4-(m-tolylsulfonyl)piperidin-1-yl)propan-1-one], the Ki on ROCK 1 (Rho kinase 1) and at ROCK 2 (Rho kinase 2) was under 3 nM throughout.

With `Cc1c[nH]c2ncnc(Oc3ccc(C[C@H](N)C(=O)NC4(C(N)=O)CCCCC4)cc3F)c12` [Example 32, (S)-1-(2-amino-3-(3-fluoro-4-((5-methyl-7H-pyrrolo[2,3-d]pyrimidin-4-yl)oxy)phenyl)propanamido)cyclohexanecarboxamide], the Ki was 3 to 30 nM on ROCK 1 (Rho kinase 1) and under 3 nM at ROCK 2 (Rho kinase 2).

Turning to `CNC(=O)C1(NC(=O)[C@@H](N)Cc2ccc(Oc3ncnc4[nH]cc(C)c34)c(F)c2)CCCCC1` [Example 33, (S)-1-(2-amino-3-(3-fluoro-4-((5-methyl-7H-pyrrolo[2,3-d]pyrimidin-4-yl)oxy)phenyl)propanamido)-N-methylcyclohexanecarboxamide], the Ki at ROCK 1 (Rho kinase 1) and at ROCK 2 (Rho kinase 2) was under 3 nM throughout.

In the case of `Cc1c[nH]c2ncnc(Oc3ccc(C[C@H](N)C(=O)NC4(CCO)CCCCC4)cc3F)c12` [Example 34, (S)-2-amino-3-(3-fluoro-4-((5-methyl-7H-pyrrolo[2,3-d]pyrimidin-4-yl)oxy)phenyl)-N-(1-(2-hydroxyethyl)cyclohexyl)propanamide], the Ki at ROCK 1 (Rho kinase 1) and at ROCK 2 (Rho kinase 2) was under 3 nM throughout.

For `Cc1c[nH]c2ncnc(Oc3ccc(C[C@H](N)C(=O)NC4(CO)CCCCC4)cc3F)c12` [Example 35, (S)-2-Amino-3-(3-fluoro-4-((5-methyl-7H-pyrrolo[2,3-d]pyrimidin-4-yl)oxy)phenyl)-N-(1-(hydroxymethyl)cyclohexyl)propanamide], the Ki on ROCK 1 (Rho kinase 1) and on ROCK 2 (Rho kinase 2) was under 3 nM throughout.

On to `Cc1c[nH]c2ncnc(Oc3ccc(C[C@H](N)C(=O)NC4(CO)CCOCC4)cc3F)c12` [Example 36, (S)-2-Amino-3-(3-fluoro-4-((5-methyl-7H-pyrrolo[2,3-d]pyrimidin-4-yl)oxy)phenyl)-N-(4-(hydroxymethyl)tetrahydro-2H-pyran-4-yl)propanamide], for which the Ki at ROCK 1 (Rho kinase 1) was 3 to 30 nM; on ROCK 2 (Rho kinase 2) it was under 3 nM.

For the compound `Cc1c[nH]c2ncnc(Oc3ccc(C[C@H](N)C(=O)N4CCC(S(=O)(=O)c5ccc(F)cc5)CC4)cc3F)c12` [Example 37, (S)-2-Amino-3-(3-fluoro-4-((5-methyl-7H-pyrrolo[2,3-d]pyrimidin-4-yl)oxy)phenyl)-1-(4-((4-fluorophenyl)sulfonyl)piperidin-1-yl)propan-1-one], the Ki at ROCK 1 (Rho kinase 1) and on ROCK 2 (Rho kinase 2) was under 3 nM throughout.

In the case of `Cc1c[nH]c2ncnc(Oc3ccc(C[C@H](N)C(=O)N4CC[C@H](S(=O)(=O)c5ccccc5)C4)cc3F)c12` [Example 38, (S)-2-Amino-3-(3-fluoro-4-((5-methyl-7H-pyrrolo[2,3-d]pyrimidin-4-yl)oxy)phenyl)-1-((S)-3-(phenylsulfonyl)pyrrolidin-1-yl)propan-1-one], the inhibition constant (Ki) at ROCK 1 (Rho kinase 1) and on ROCK 2 (Rho kinase 2) was under 3 nM in each case.

For the compound `Cc1c[nH]c2ncnc(Oc3ccc(C[C@H](N)C(=O)NC4CCN(C5CC5)CC4)cc3F)c12` [Example 39, (S)-2-Amino-N-(1-cyclopropylpiperidin-4-yl)-3-(3-fluoro-4-((5-methyl-7H-pyrrolo[2,3-d]pyrimidin-4-yl)oxy)phenyl)propanamide], the Ki on ROCK 1 (Rho kinase 1) and on ROCK 2 (Rho kinase 2) was under 3 nM in each case.

In the case of `CN1CCC(NC(=O)[C@@H](N)Cc2ccc(Oc3ccnc4[nH]cc(C5CC5)c34)c(F)c2)CC1` [Example 40, (S)-2-Amino-3-(4-((3-cyclopropyl-1H-pyrrolo[2,3-b]pyridin-4-yl)oxy)-3-fluorophenyl)-N-(1-methylpiperidin-4-yl)propanamide], the Ki at ROCK 1 (Rho kinase 1) and at ROCK 2 (Rho kinase 2) was under 3 nM in each case.

Consider `Cc1c[nH]c2ncnc(Oc3c(F)cc(C[C@H](N)C(=O)N4CCC(S(=O)(=O)c5ccccc5)CC4)cc3F)c12` [Example 41, (S)-2-Amino-3-(3,5-difluoro-4-((5-methyl-7H-pyrrolo[2,3-d]pyrimidin-4-yl)oxy)phenyl)-1-(4-(phenylsulfonyl)piperidin-1-yl)propan-1-one], for which the Ki at ROCK 1 (Rho kinase 1) and on ROCK 2 (Rho kinase 2) was under 3 nM throughout.

For `Cc1c[nH]c2nccc(Oc3c(F)cc(C[C@H](N)C(=O)N4CCC(S(=O)(=O)c5ccccc5)CC4)cc3F)c12` [Example 42, (S)-2-amino-3-(3,5-difluoro-4-((3-methyl-1H-pyrrolo[2,3-b]pyridin-4-yl)oxy)phenyl)-1-(4-(phenylsulfonyl)piperidin-1-yl)propan-1-one], the Ki at ROCK 1 (Rho kinase 1) and at ROCK 2 (Rho kinase 2) was under 3 nM in each case.

On to `COCCNC(=O)C1(NC(=O)[C@@H](N)Cc2ccc(Oc3ccnc4[nH]cc(C)c34)c(F)c2)CCCCC1` [Example 43, (S)-1-(2-amino-3-(3-fluoro-4-((3-methyl-1H-pyrrolo[2,3-b]pyridin-4-yl)oxy)phenyl)propanamido)-N-(2-methoxyethyl)cyclohexanecarboxamide], for which the Ki on ROCK 1 (Rho kinase 1) and on ROCK 2 (Rho kinase 2) was under 3 nM throughout.

On to `Cc1c[nH]c2nccc(Oc3ccc(C[C@H](N)C(=O)NC4(C(=O)NCCO)CCCCC4)cc3F)c12` [Example 44, (S)-1-(2-amino-3-(3-fluoro-4-((3-methyl-1H-pyrrolo[2,3-b]pyridin-4-yl)oxy)phenyl)propanamido)-N-(2-hydroxyethyl)cyclohexanecarboxamide], for which the Ki on ROCK 1 (Rho kinase 1) and at ROCK 2 (Rho kinase 2) was under 3 nM each time.

Regarding `Cc1c[nH]c2nccc(Oc3ccc(C[C@H](N)C(=O)N(C)C)cc3F)c12` [Example 45, (S)-2-amino-3-(3-fluoro-4-((3-methyl-1H-pyrrolo[2,3-b]pyridin-4-yl)oxy)phenyl)-N,N-dimethylpropanamide], the Ki on ROCK 1 (Rho kinase 1) is 3 to 30 nM; on ROCK 2 (Rho kinase 2) it was under 3 nM.

For `CNC(=O)[C@@H](N)Cc1ccc(Oc2ccnc3[nH]cc(C)c23)c(F)c1` [Example 46, (S)-2-amino-3-(3-fluoro-4-((3-methyl-1H-pyrrolo[2,3-b]pyridin-4-yl)oxy)phenyl)-N-methylpropanamide], the Ki at ROCK 1 (Rho kinase 1) and on ROCK 2 (Rho kinase 2) was under 3 nM in each case.

For the compound `Cc1c[nH]c2nccc(Oc3ccc(C[C@H](N)C(N)=O)cc3F)c12` [Example 47, (S)-2-amino-3-(3-fluoro-4-((3-methyl-1H-pyrrolo[2,3-b]pyridin-4-yl)oxy)phenyl)propanamide], the inhibition constant Ki at ROCK 1 (Rho kinase 1) and at ROCK 2 (Rho kinase 2) was under 3 nM each time.
